Results as given in US9669003B2, “Use of flavone and flavanone derivatives in preparation of sedative and hypnotic drugs” (priority 2012, dated 2017).
Marks after values point to notes of the source that are not given here.

Assays:
Type in all cases: in vivo
Kunming mice [1] = experiment: Influence on autonomic activity of normal mice (ZIL-2 mice autonomic activity meter, counts within 10 min); conditions: intragastric, x ± s; for Times of activities in 1 h after drug administration/10 min: 1 h after administration; for Times of activities in 2 h after drug administration/10 min: 2 h after administration; for Times of activities in 24 h after drug administration/10 min: 24 h after administration
Description: (§1) 1.1 Animals for experiments: Kunming mice, weighting 18.9˜22.2 g for females, and 20.2˜23.0 g for males, licensed under SCXK-(Ji) 2007-0003, and provided by The experimental animal centre, Jilin University.
(§2) 1.2 Chemicals for experiments: The flavone derivatives provided in Examples 1-41 and the flavanone derivatives provided in Examples 42-71 are all formulated with 0.5% sodium carboxymethyl cellulose as solutions with required concentrations.
(§3) 1.3 Grouping of animals: 6420 animals are employed in the entire experiments and 2140 of the animals are randomly divided into 214 groups by gender, and the […] include: control group, low dosage group for each experimental drugs (25 mg/kg), medium dosage group for each experimental drugs (50 mg/kg), and high dosage group for each experimental drugs (100 mg/kg). Each group has 10 animals and either female or male constitutes half of the group. The groups are used in behavior observation and voluntary action observation. The other 4280 animals are randomly divided into 214 groups by gender respectively (the grouping way is the same with that described above). Each group has 20 animals and either female or male constitutes half of the group. In each group, 10 animals are used in hypnosis experimentations with pentobarbital sodium doses below the threshold, and the other 10 animals are used hypnosis experimentations with pentobarbital sodium doses at the threshold.
1.4 Experimental instrument and agents: ZIL-2 mice autonomic activity meter, production of Institute of Materia Medica of Chinese Academy of Medical Sciences; pentobarbital sodium, Lot: 100808, 25 g/bottle, Beijing Chemical Reagent Company equipment imported from Germany.
1.5.2 Influence on Autonomic Activity of Normal Mice
After observing the general behavior, in 1 h, 2 h and 24 h after drug administration, respectively, ZIL-2 mice autonomic activity meter is put respectively. Number of autonomic activities of each group of mice is measured within 10 min. Results among groups are compared.
(§4) Number of autonomic activities is detected by leneve Test for homogeneity of variance. If the homogeneity of variance is good (P>0.05), statistical analysis is performed with ANOVA. If ANOVA have statistical significance (P≦0.05), Dunnett's test for multiple comparisons analysis is performed. Number of animals of sleeping mice is applied of ANOVA. Incidence rate of animal asleep is applied of χ2 test. Sleep latency and sleep duration are recorded in min, averaged by group, represented by standard deviation, and undergo statistical analysis using ANOVA.

Kunming mice [2] = experiment: Influence on hypnosis effect with pentobarbital sodium doses below the threshold (25 mg/kg i.p.); conditions: pentobarbital sodium 25 mg/kg i.p. 60 min later, sleep observed in 30 min, n = 10
Description: as §1, §2, §3
1.5.3 Influence on Hypnosis Effect with Mice Pentobarbital Sodium Doses Below the Threshold
(§5) The drug is intragastric administered in mice for single time, 2 animals of each group are given drug per round with the dosing interval of 40 min (±5 min). According to the administration round, in 60 min (±5 min) of each round after the drug administration, the animals were intraperitoneally injected 0.3% sodium pentobarbital 25 mg/kg, respectively. Sleep condition of the animals were observed within 30 min (under sleep determination standard of loss of righting reflex more than 1 min). After animals undergo loss of righting reflex, number of the animals is recorded, to calculate sleep percentage.
as §4

Kunming mice [3] = experiment: Influence on hypnosis effect with pentobarbital sodium doses at the threshold (50 mg/kg i.p.); conditions: pentobarbital sodium 50 mg/kg i.p. 60 min later, x ± s, n = 10
Description: as §1, §2, §3
1.5.4 Influence on Hypnosis Effect with Mice Pentobarbital Sodium Doses at the Threshold
as §5, with “50” for “25”, “Time to fall asleep (sleep latency) and sleep duration” for “Sleep condition”, “recorded” for “observed”, “under” for “30 min (under”, “min.” for “min). After animals undergo loss of righting reflex, number of the animals is recorded, to calculate sleep percentage.”
as §4

[4] = test drug 25 mg/kg intragastric single dose
[5] = test drug 50 mg/kg intragastric single dose
[6] = test drug 100 mg/kg intragastric single dose
[7] = 25 mg/kg intragastric single dose
[8] = 50 mg/kg intragastric single dose
[9] = 100 mg/kg intragastric single dose

Row | Compound | Number of sleeping animals (Kunming mice [2]; [4]) | rate of sleeping (%) (Kunming mice [2]; [4]) | Number of sleeping animals (Kunming mice [2]; [5]) | rate of sleeping (%) (Kunming mice [2]; [5]) | Number of sleeping animals (Kunming mice [2]; [6]) | rate of sleeping (%) (Kunming mice [2]; [6]) | duration of sleep (Kunming mice [3]; [7]) [min] | time to sleep (Kunming mice [3]; [7]) [min] | duration of sleep (Kunming mice [3]; [8]) [min] | time to sleep (Kunming mice [3]; [8]) [min] | duration of sleep (Kunming mice [3]; [9]) [min] | time to sleep (Kunming mice [3]; [9]) [min] | also measured
1 | COc1ccc(C2CC(=O)c3c(O)c(OC)c(OC)c(OC)c3O2)cc1OC (stereo not drawn) [Example 43, 5-hydroxyl-6,7,8,3′,4′-penta methoxyl-flavanone] | 5 | 50** % | 7 | 70** % | 8 | 80*** % | 32.33 ± 23.16 | 4.88 ± 1.91 | 59.98 ± 18.43 | 4.19 ± 1.74 | 63.07 ± 33.12 | 3.85 ± 1.76 | Times of activities in 1 h after drug administration/10 min (Kunming mice [1]; 25 mg/kg, n = 10, 25 mg/kg): 293.7 ± 41.4 /10 min; Times of activities in 2 h after drug administration/10 min (Kunming mice [1]; 25 mg/kg, n = 10, 25 mg/kg): 306.3 ± 51.6 /10 min; Times of activities in 24 h after drug administration/10 min (Kunming mice [1]; 25 mg/kg, n = 10, 25 mg/kg): 324.7 ± 71.3 /10 min; Times of activities in 1 h after drug administration/10 min (Kunming mice [1]; 50 mg/kg, n = 10, 50 mg/kg): 254.1 ± 42.7 /10 min; Times of activities in 2 h after drug administration/10 min (Kunming mice [1]; 50 mg/kg, n = 10, 50 mg/kg): 252.6 ± 41.6 /10 min; Times of activities in 24 h after drug administration/10 min (Kunming mice [1]; 50 mg/kg, n = 10, 50 mg/kg): 313.7 ± 68.5 /10 min; Times of activities in 1 h after drug administration/10 min (Kunming mice [1]; 100 mg/kg, n = 10, 100 mg/kg): 265.4 ± 49.2 /10 min; Times of activities in 2 h after drug administration/10 min (Kunming mice [1]; 100 mg/kg, n = 10, 100 mg/kg): 258.1 ± 32.7 /10 min; Times of activities in 24 h after drug administration/10 min (Kunming mice [1]; 100 mg/kg, n = 10, 100 mg/kg): 294.1 ± 72.3 /10 min
2 | COc1ccc(-c2cc(=O)c3c(OC)c(OC)c(OC)c(OC)c3o2)cc1OC [Example 14, 5,6,7,8,3′,4′-hexamethoxyl-flavone] | 4 | 40* % | 6 | 60** % | 7 | 70** % | 34.12 ± 28.26 | 4.78 ± 1.81 | 57.34 ± 19.33 | 4.25 ± 1.55 | 60.26 ± 32.36 | 3.93 ± 1.57 | Times of activities in 1 h after drug administration/10 min (Kunming mice [1]; 25 mg/kg, n = 10): 289.9 ± 42.3 /10 min; Times of activities in 2 h after drug administration/10 min (Kunming mice [1]; 25 mg/kg, n = 10): 281.1 ± 41.6 /10 min; Times of activities in 24 h after drug administration/10 min (Kunming mice [1]; 25 mg/kg, n = 10): 313.2 ± 74.4 /10 min; Times of activities in 1 h after drug administration/10 min (Kunming mice [1]; 50 mg/kg, n = 10): 178.6 ± 40.2 /10 min; Times of activities in 2 h after drug administration/10 min (Kunming mice [1]; 50 mg/kg, n = 10): 183.3 ± 51.3 /10 min; Times of activities in 24 h after drug administration/10 min (Kunming mice [1]; 50 mg/kg, n = 10): 324.7 ± 79.6 /10 min; Times of activities in 1 h after drug administration/10 min (Kunming mice [1]; 100 mg/kg, n = 10): 159.1 ± 48.1 /10 min; Times of activities in 2 h after drug administration/10 min (Kunming mice [1]; 100 mg/kg, n = 10): 133.9 ± 49.7 /10 min; Times of activities in 24 h after drug administration/10 min (Kunming mice [1]; 100 mg/kg, n = 10): 322.6 ± 61.2 /10 min
